The target of assay [1] is T1, AKT2 (Homo sapiens, UniProt P31751).
T1 construct: expressed in transfected cells; host or cells: HEK293
As to the kind of experiment: Live cell AKT2 target engagement by NanoBRET competitive probe displacement in HEK293 cells. Format: binding. The note with it: NanoBRET live cell target engagement, HEK293 cells, 2 h at 37° C.; read-out: AKT2 IC50.

The target of assay [2] is T2, AKT1 E17K (Homo sapiens, UniProt P31749, E17K).
T2 construct: expressed in transfected cells; host or cells: HEK293
As to the kind of experiment: Live cell AKT1 E17K target engagement by NanoBRET competitive probe displacement in HEK293 cells. Format: binding. The note with it: NanoBRET live cell target engagement, HEK293 cells, 2 h at 37° C. The gist of the method:
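HEK293 cells transiently expressing kinase–NanoLuciferase fusions (overnight transfection) were exposed to serially diluted compound plus a fluorescent ATP-competitive tracer at ~EC50 for 2 h at 37° C. After substrate and extracellular luciferase inhibitor, emission at 460 and 600 nm gave the BRET ratio (E600/E460); IC50 from Hill fit.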

The target of assay [3] is T3, AKT1 WT (Homo sapiens, UniProt P31749).
T3 construct: expressed in transfected cells; host or cells: HEK293
As to the kind of experiment: Live cell AKT1 WT target engagement by NanoBRET competitive probe displacement in HEK293 cells. The format is binding. The note with it: NanoBRET live cell target engagement, HEK293 cells, 2 h at 37° C.; read-out: AKT1 WT IC50.

The test system of assay [4] is LAPC4 prostate cancer cells, which express the AKT1 E17K allele. As to the kind of experiment: Antiproliferative effects in LAPC4 cells (CellTiter Glo, 72 h). The format is cell-based. The note with it: read-out: LAPC4 proliferation IC50. In a few lines:
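LAPC4 cells were cultured in IMDM with 12% FBS and 1% P/S, seeded at 1,000 cells/well and exposed to compound dilutions in DMSO. After 72 h, intracellular ATP was measured by CellTiter Glo luminescence, and IC50 values came from a log(inhibitor) vs. response Hill fit.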

Structures are written as SMILES. pIC50: −log10 of the molar value. Read-outs that look alike come from different tables or passages of the source.

In patent US12624034B2, “Non-covalent modifiers of AKT1 and uses thereof” (Terremoto Biosciences, Inc., priority 2023, dated 2026) one finds IC50 data, which are given here for 22 molecules.

T3 sequence (P31749 whole entry): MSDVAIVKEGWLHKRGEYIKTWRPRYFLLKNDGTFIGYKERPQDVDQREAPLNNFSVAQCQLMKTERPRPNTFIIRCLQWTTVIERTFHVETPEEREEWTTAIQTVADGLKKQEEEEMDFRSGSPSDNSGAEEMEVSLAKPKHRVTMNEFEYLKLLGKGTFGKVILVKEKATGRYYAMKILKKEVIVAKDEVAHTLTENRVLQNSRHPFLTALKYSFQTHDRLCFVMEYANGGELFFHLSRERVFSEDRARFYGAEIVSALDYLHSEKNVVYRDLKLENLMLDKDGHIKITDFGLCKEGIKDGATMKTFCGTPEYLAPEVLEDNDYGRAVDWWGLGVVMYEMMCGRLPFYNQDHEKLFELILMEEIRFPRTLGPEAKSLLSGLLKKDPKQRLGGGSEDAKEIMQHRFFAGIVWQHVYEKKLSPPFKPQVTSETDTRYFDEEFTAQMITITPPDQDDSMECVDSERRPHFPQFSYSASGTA
T1 sequence (P31751 whole entry): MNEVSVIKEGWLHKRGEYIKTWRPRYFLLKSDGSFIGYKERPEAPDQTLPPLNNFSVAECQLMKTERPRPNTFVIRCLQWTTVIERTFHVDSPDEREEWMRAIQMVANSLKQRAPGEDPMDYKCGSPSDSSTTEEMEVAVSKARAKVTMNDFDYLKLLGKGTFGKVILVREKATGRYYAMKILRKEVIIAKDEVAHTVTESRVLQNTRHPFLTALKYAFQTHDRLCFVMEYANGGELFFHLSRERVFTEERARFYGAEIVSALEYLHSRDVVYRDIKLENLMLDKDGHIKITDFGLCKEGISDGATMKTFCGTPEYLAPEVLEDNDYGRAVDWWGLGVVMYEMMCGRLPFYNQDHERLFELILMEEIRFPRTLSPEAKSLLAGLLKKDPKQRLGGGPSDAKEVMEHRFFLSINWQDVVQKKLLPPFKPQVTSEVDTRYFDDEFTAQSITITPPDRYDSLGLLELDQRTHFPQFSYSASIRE
T2 sequence (P31749 whole entry E17K): as the sequence (P31749 whole entry) above, with E17K counted along it

As for `Cn1ccc(C(=O)N[C@H]2CCc3cc(-n4c(-c5cccnc5N)nc5ccc(-n6cccn6)nc54)ccc32)n1` [Compound 13, (S)—N-(5-(2-(2-aminopyridin-3-yl)-5-(1H-pyrazol-1-yl)-3H-imidazo[4,5-b]pyridin-3-yl)-2,3-dihydro-1H-inden-1-yl)-1-methyl-1H-pyrazole-3-carboxamide], the pIC50 in assay [1] is 5.90; in assay [2] it was 6.48; in assay [3] it was 7.31; in assay [4] (Homo sapiens, LAPC4, 72 h), 5.46.
Taken in the same sequence, the figures for `Nc1ncccc1-c1nc2ccc(-n3cccn3)nc2n1-c1ccc2c(c1)CC[C@@H]2NC(=O)c1cccnc1` [Compound 34, N-[(1S)-5-[2-(2-aminopyridin-3-yl)-5-(pyrazol-1-yl)imidazo[4,5-b]pyridin-3-yl]-2,3-dihydro-1H-inden-1-yl]pyridine-3-carboxamide] were 7.19, 7.62, 8.20 and 6.26.
For the molecule `Nc1ncccc1-c1nc2ccc(-n3cccn3)nc2n1-c1ccc2c(c1)CC[C@@H]2NC(=O)c1ccc(C2CC2)nc1` [Compound 46, N-[(1S)-5-[2-(2-aminopyridin-3-yl)-5-(pyrazol-1-yl)imidazo[4,5-b]pyridin-3-yl]-2,3-dihydro-1H-inden-1-yl]-6-cyclopropylpyridine-3-carboxamide], the pIC50 is 7.77 in assay [1]; 7.82 in assay [2]; 8.16 in assay [3]; 6.48 in assay [4] (Homo sapiens, LAPC4, 72 h).
Taken in the same sequence, the figures for `Cc1ccc(C(=O)N[C@H]2CCc3cc(-n4c(-c5cccnc5N)nc5ccc(-n6cccn6)nc54)ccc32)cn1` [Compound 26, (S)—N-(5-(2-(2-aminopyridin-3-yl)-5-(1H-pyrazol-1-yl)-3H-imidazo[4,5-b]pyridin-3-yl)-2,3-dihydro-1H-inden-1-yl)-6-methylnicotinamide] were 7.16, 7.57, 8.19 and 5.97.
Taken in the same sequence, the figures for `Nc1ncccc1-c1nc2ccc(-n3ccc(F)n3)nc2n1-c1ccc2c(c1)CC[C@@H]2NC(=O)c1ccc(C(F)F)nc1` [Compound 53, (S)—N-(5-(2-(2-aminopyridin-3-yl)-5-(3-fluoro-1H-pyrazol-1-yl)-3H-imidazo[4,5-b]pyridin-3-yl)-2,3-dihydro-1H-inden-1-yl)-6-(difluoromethyl)nicotinamide] were 6.93, 6.85, 7.74 and 5.95.
In the same order, the values of `Nc1ncccc1-c1nc2ccc(-n3cccn3)nc2n1-c1ccc2c(c1)CC[C@@H]2NC(=O)C1COC1` [Compound 15, (S)—N-(5-(2-(2-aminopyridin-3-yl)-5-(1H-pyrazol-1-yl)-3H-imidazo[4,5-b]pyridin-3-yl)-2,3-dihydro-1H-inden-1-yl)oxetane-3-carboxamide] are 5.39, < 6.00, 6.67 and < 5.00.
For the molecule `Cn1cc(C(=O)N[C@H]2CCc3cc(-n4c(-c5cccnc5N)nc5ccc(-n6cccn6)nc54)ccc32)cn1` [Compound 39, (S)—N-(5-(2-(2-aminopyridin-3-yl)-5-(1H-pyrazol-1-yl)-3H-imidazo[4,5-b]pyridin-3-yl)-2,3-dihydro-1H-inden-1-yl)-1-methyl-1H-pyrazole-4-carboxamide], the pIC50 in assay [1] was 6.12; in assay [2], 6.68; in assay [3], 7.31; in assay [4] (Homo sapiens, LAPC4, 72 h), 5.28.
For the molecule `COc1nccc(C(=O)N[C@H]2CCc3cc(-n4c(-c5cccnc5N)nc5ccc(-n6cccn6)nc54)ccc32)c1Cl` [Compound 281], the pIC50 in assay [1] is 7.74; in assay [2] it was 7.12; in assay [3], 8.44; in assay [4] (Homo sapiens, LAPC4, 72 h), 6.02.
In the same order, the values of `Nc1ncccc1-c1nc2ccc(-n3cccn3)nc2n1-c1ccc2c(c1)CC[C@@H]2NC(=O)c1ccc(Cl)nc1` [Compound 45, (S)—N-(5-(2-(2-aminopyridin-3-yl)-5-(1H-pyrazol-1-yl)-3H-imidazo[4,5-b]pyridin-3-yl)-2,3-dihydro-1H-inden-1-yl)-6-chloronicotinamide] are 6.86, 6.77, 7.76 and 5.87.
In the same order, the values of `Cc1cc(C(F)F)ncc1C(=O)N[C@H]1CCc2cc(-n3c(-c4cccnc4N)nc4ccc(-n5cccn5)nc43)ccc21` [Compound 56, (S)—N-(5-(2-(2-aminopyridin-3-yl)-5-(1H-pyrazol-1-yl)-3H-imidazo[4,5-b]pyridin-3-yl)-2,3-dihydro-1H-inden-1-yl)-6-(difluoromethyl)-4-methylnicotinamide] are 7.36, 6.84, 7.91 and 5.79.
In the same order, the values of `Nc1ncccc1-c1nc2ccc(-n3cccn3)nc2n1-c1ccc2c(c1)CC[C@@H]2NC(=O)c1cc[nH]c(=O)c1` [Compound 318] are 6.03, 6.74, 6.83 and 5.44.
On to `COc1ccc(C(=O)N[C@H]2CCc3cc(-n4c(-c5cccnc5N)nc5ccc(-n6nccn6)nc54)ccc32)cn1` [Compound 371], for which the pIC50 in assay [1] was 5.89; in assay [2], 7.32; in assay [3], 7.81; in assay [4] (Homo sapiens, LAPC4, 72 h), 5.98.
Turning to `Nc1ncccc1-c1nc2ccc(-n3nccn3)nc2n1-c1ccc2c(c1)CC(F)[C@@H]2NC(=O)c1ccc(C(F)F)nc1` (stereo partly shown) [Compound 349], the pIC50 was 6.65 in assay [1], 7.30 in assay [2], 7.99 in assay [3] and 6.39 in assay [4].
With `CN(C)c1ccc(F)c(C(=O)N[C@H]2CCc3cc(-n4c(-c5cccnc5N)nc5ccc(-n6cccn6)nc54)ccc32)c1` [Compound 7, N—{(S)-5-[2-(2-amino-3-pyridyl)-5-(1-pyrazolyl)-3H-1,3,4-triazainden-3-yl]-1-indanyl}5-(dimethylamino)-2-fluorobenzamide], the pIC50 in assay [1] was 6.93; in assay [2], 6.49; in assay [3], 8.14; in assay [4] (Homo sapiens, LAPC4, 72 h), 5.59.
In the same order, the values of `Cc1ccncc1C(=O)N[C@H]1CCc2cc(-n3c(-c4cccnc4N)nc4ccc(-n5cccn5)nc43)ccc21` [Compound 31, (S)—N-(5-(2-(2-aminopyridin-3-yl)-5-(1H-pyrazol-1-yl)-3H-imidazo[4,5-b]pyridin-3-yl)-2,3-dihydro-1H-inden-1-yl)-4-methylnicotinamide] are 6.33, 6.44, 7.47 and 5.10.
In the same order, the values of `Nc1ncccc1-c1nc2ccc(-n3cccn3)nc2n1-c1ccc2c(c1)CC[C@@H]2NC(=O)c1ccc(-n2cccn2)nc1` [Compound 54, (S)—N-(5-(2-(2-aminopyridin-3-yl)-5-(1H-pyrazol-1-yl)-3H-imidazo[4,5-b]pyridin-3-yl)-2,3-dihydro-1H-inden-1-yl)-6-(1H-pyrazol-1-yl)nicotinamide] are 7.97, 7.76, 7.92 and 6.68.
In the same order, the values of `Nc1ncccc1-c1nc2ccc(-n3cccn3)nc2n1-c1ccc2c(c1)CC[C@@H]2NC(=O)c1cnc(C(F)F)c(Cl)c1` [Compound 365] are 7.60, 7.58, 8.07 and 6.35.
With `CN1CCC(N[C@H]2CCc3cc(-n4c(-c5cccnc5N)nc5ccc(-n6cccn6)nc54)ccc32)CC1` [Compound 274], the pIC50 in assay [1] was 5.30; in assay [2], < 6.00; in assay [3], 6.23; in assay [4] (Homo sapiens, LAPC4, 72 h) it was < 5.00.
In the same order, the values of `Nc1ncccc1-c1nc2ccc(-n3cccn3)nc2n1-c1ccc2c(c1)CC[C@@H]2NC(=O)c1ccc(O)cc1` [Compound 42, (S)—N-(5-(2-(2-aminopyridin-3-yl)-5-(1H-pyrazol-1-yl)-3H-imidazo[4,5-b]pyridin-3-yl)-2,3-dihydro-1H-inden-1-yl)-4-hydroxybenzamide] are 7.39, 7.84, 8.55 and 6.20.
Regarding `Nc1ncccc1-c1nc2ccc(-n3cccn3)nc2n1-c1ccc2c(c1)CC[C@@H]2NC1CCN(C(=O)c2ccccc2)CC1` [Compound 275], the pIC50 is 5.97 in assay [1]; 6.24 in assay [2]; 7.29 in assay [3]; 5.36 in assay [4] (Homo sapiens, LAPC4, 72 h).
In the same order, the values of `COc1nccc(C(=O)N[C@H]2CCc3cc(-n4c(-c5cccnc5N)nc5ccc(-n6cccn6)nc54)ccc32)c1C` [Compound 284] are 7.98, 6.84, 8.29 and 5.97.
For `Nc1ncccc1-c1nc2ccc(-n3cccn3)nc2n1-c1ccc2c(c1)CC[C@@H]2NC(=O)c1ccc(C(F)F)cc1` [Compound 61, (S)—N-(5-(2-(2-aminopyridin-3-yl)-5-(1H-pyrazol-1-yl)-3H-imidazo[4,5-b]pyridin-3-yl)-2,3-dihydro-1H-inden-1-yl)-4-(difluoromethyl)benzamide], the pIC50 in assay [1] was 7.30; in assay [2], 7.14; in assay [3], 8.32; in assay [4] (Homo sapiens, LAPC4, 72 h), 6.04.
